ChEMBL document CHEMBL1201862, “PubChem BioAssay data set” (2004)
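Test compounds were applied to cells in 96-well plates for 48 hours at 5 doses. GI50: concentration for 50% inhibition of growth.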 The source made the active and inactive calls. No stated cut-off is given here; in the data, active = GI50 up to about 1.1 µM and inactive = higher.

Legend:
Experiment in all cases: DTP human tumour cell line panel, 48 h
SK-MEL-5 = tested on: SK-MEL-5
M19-MEL = tested on: M19-MEL
SNB-78 = tested on: SNB-78
SF-539 = tested on: SF-539
M14 = tested on: M14
DMS-273 = tested on: DMS-273
K562 = tested on: K562
COLO 205 = tested on: COLO 205
IGROV-1 = tested on: IGROV-1
EKVX = tested on: EKVX
SK-MEL-28 = tested on: SK-MEL-28
UACC-62 = tested on: UACC-62
NCI-H522 = tested on: NCI-H522
HCC 2998 = tested on: HCC 2998
A549 = tested on: A549
SNB-75 = tested on: SNB-75
NCI-H226 = tested on: NCI-H226
NCI-H23 = tested on: NCI-H23
DMS-114 = tested on: DMS-114
SN12C = tested on: SN12C
CCRF-CEM = tested on: CCRF-CEM
LXFL 529 = tested on: LXFL 529
TK-10 = tested on: TK-10
KM12 = tested on: KM12
MOLT-4 = tested on: MOLT-4
HL-60 = tested on: HL-60
HCT-15 = tested on: HCT-15
OVCAR-4 = tested on: OVCAR-4
RPMI-8226 = tested on: RPMI-8226
LOX IMVI = tested on: LOX IMVI
HT-29 = tested on: HT-29
HOP-92 = tested on: HOP-92
UACC-257 = tested on: UACC-257
XF498 = tested on: XF498
CAKI-1 = tested on: CAKI-1
SW-620 = tested on: SW-620
OVCAR-8 = tested on: OVCAR-8
SK-OV-3 = tested on: SK-OV-3
OVCAR-3 = tested on: OVCAR-3
UO-31 = tested on: UO-31
U-251 = tested on: U-251
RXF 393 = tested on: RXF 393
HOP-62 = tested on: HOP-62
SNB-19 = tested on: SNB-19
DLD-1 = tested on: DLD-1
SF-295 = tested on: SF-295
SF-268 = tested on: SF-268
Malme-3M = tested on: Malme-3M
ACHN = tested on: ACHN
OVCAR-5 = tested on: OVCAR-5
SK-MEL-2 = tested on: SK-MEL-2
SR = tested on: SR
HCT-116 = tested on: HCT-116
NCI-H460 = tested on: NCI-H460
KM-20L2 = tested on: KM-20L2
A498 = tested on: A498
786-0 = tested on: 786-0

`CCN(CC)CSc1nc2ccccc2s1` was tested, and the GI50 (SK-MEL-5) was > 100000 nM (inactive), the GI50 (M19-MEL) was > 100000 nM (inactive) and the GI50 (SNB-78) was > 100000 nM (inactive). For the same compound, the GI50 (SF-539) was > 100000 nM (inactive), the GI50 (M14) was > 100000 nM (inactive) and the GI50 (DMS-273) was > 100000 nM (inactive). The GI50 (K562) was > 100000 nM (inactive), the GI50 (COLO 205) was > 100000 nM (inactive) and the GI50 (IGROV-1) was > 100000 nM (inactive). The GI50 (EKVX) was > 100000 nM (inactive), the GI50 (SK-MEL-28) was > 100000 nM (inactive) and the GI50 (UACC-62) was > 100000 nM (inactive). The GI50 (NCI-H522) was > 100000 nM (inactive), the GI50 (HCC 2998) was > 100000 nM (inactive) and the GI50 (A549) was > 100000 nM (inactive). For the same compound, the GI50 (SNB-75) was > 100000 nM (inactive), the GI50 (NCI-H226) was > 100000 nM (inactive) and the GI50 (NCI-H23) was > 100000 nM (inactive). The GI50 (DMS-114) was > 100000 nM (inactive), the GI50 (SN12C) was > 100000 nM (inactive) and the GI50 (CCRF-CEM) was > 100000 nM (inactive). For the same compound, the GI50 (LXFL 529) was > 100000 nM (inactive), the GI50 (TK-10) was > 100000 nM (inactive) and the GI50 (KM12) was > 100000 nM (inactive). For the same compound, the GI50 (MOLT-4) was > 100000 nM (inactive), the GI50 (HL-60) was > 100000 nM (inactive) and the GI50 (HCT-15) was > 100000 nM. The GI50 (OVCAR-4) was > 100000 nM (inactive), the GI50 (RPMI-8226) was > 100000 nM (inactive) and the GI50 (LOX IMVI) was > 100000 nM (inactive). For the same compound, the GI50 (HT-29) was > 100000 nM (inactive), the GI50 (HOP-92) was > 100000 nM (inactive) and the GI50 (UACC-257) was > 100000 nM (inactive). The GI50 (XF498) was > 100000 nM (inactive), the GI50 (CAKI-1) was > 100000 nM (inactive) and the GI50 (SW-620) was > 100000 nM (inactive). The GI50 (OVCAR-8) was > 100000 nM (inactive), the GI50 (SK-OV-3) was > 100000 nM (inactive) and the GI50 (OVCAR-3) was > 100000 nM (inactive).

In the case of `COc1cc2c(c(OC)c1OC)-c1ccc(SC)c(=O)cc1[C@@H](NCc1ccc(C#N)cc1)CC2`, the GI50 (SK-MEL-5) is reported as 3.65 nM (active), the GI50 (M19-MEL) is reported as 3.61 nM (active) and the GI50 (SNB-78) is reported as 5.31 nM (active). For the same compound, the GI50 (UO-31) was 76.4 nM (active), the GI50 (SF-539) was 2.52 nM (active) and the GI50 (M14) was 3.26 nM (active). For the same compound, the GI50 (DMS-273) was 3.4 nM (active), the GI50 (U-251) was 3.1 nM (active) and the GI50 (K562) was 3.83 nM (active). The GI50 (RXF 393) was 1.85 nM (active), the GI50 (HOP-62) was 4 nM (active) and the GI50 (COLO 205) was 3.5 nM (active). For the same compound, the GI50 (IGROV-1) was 4.12 nM (active), the GI50 (EKVX) was 7.26 nM (active) and the GI50 (SK-MEL-28) was 5.78 nM (active). For the same compound, the GI50 (UACC-62) was 2.64 nM (active), the GI50 (NCI-H522) was 2.78 nM (active) and the GI50 (SNB-19) was 48.8 nM (active). The GI50 (HCC 2998) was 2.91 nM (active), the GI50 (A549) was 4.11 nM (active) and the GI50 (SNB-75) was 3.07 nM (active). The GI50 (NCI-H226) was 3.91 nM (active), the GI50 (NCI-H23) was 2.74 nM (active) and the GI50 (DMS-114) was 2.36 nM (active). For the same compound, the GI50 (SN12C) was 4.49 nM (active), the GI50 (CCRF-CEM) was 4.14 nM (active) and the GI50 (LXFL 529) was 5.3 nM (active). For the same compound, the GI50 (TK-10) was 8.11 nM (active), the GI50 (KM12) was 4.69 nM (active) and the GI50 (DLD-1) was 3.48 nM (active). For the same compound, the GI50 (MOLT-4) was 5.78 nM (active), the GI50 (HL-60) was 3.01 nM (active) and the GI50 (HCT-15) was 4.72 nM. For the same compound, the GI50 (OVCAR-4) was 3740 nM (inactive), the GI50 (RPMI-8226) was 3.15 nM (active) and the GI50 (SF-295) was 3.69 nM (active). For the same compound, the GI50 (SF-268) was 6.12 nM (active), the GI50 (LOX IMVI) was 5.21 nM (active) and the GI50 (Malme-3M) was 5.64 nM (active). For the same compound, the GI50 (HT-29) was 2.39 nM (active), the GI50 (ACHN) was 6.12 nM (active) and the GI50 (HOP-92) was 30.7 nM (active). For the same compound, the GI50 (OVCAR-5) was 7.36 nM (active), the GI50 (UACC-257) was 6.71 nM (active) and the GI50 (XF498) was 3.21 nM (active). For the same compound, the GI50 (SK-MEL-2) was 7.03 nM (active), the GI50 (CAKI-1) was 7.01 nM (active) and the GI50 (SR) was 2 nM (active). The GI50 (HCT-116) was 3.87 nM (active), the GI50 (NCI-H460) was 3.79 nM (active) and the GI50 (SW-620) was 3.66 nM (active). For the same compound, the GI50 (KM-20L2) was 1.94 nM (active), the GI50 (OVCAR-8) was 4.1 nM (active) and the GI50 (SK-OV-3) was 3.1 nM (active). The GI50 (A498) was 5.89 nM (active), the GI50 (786-0) was 5.28 nM (active) and the GI50 (OVCAR-3) was 3.21 nM (active).
